ChEMBL document CHEMBL1149975, “Synthesis of C2-symmetrical polyhydroxyazepanes as inhibitors of glycosidases” (Bioorg Med Chem Lett, 1996)

Experiments:
[1] = Compound was tested for inhibition of alpha-mannosidase from jack beans; NI means no inhibition.; parameters: species or system Canavalia ensiformis
[2] = Compound was tested for inhibition of beta-N-acetylglucosaminidase from jack beans.; parameters: species or system Canavalia ensiformis
[3] = molecular target: T1, Beta-galactosidase (Aspergillus niger, UniProt P29853); assay: Compound was tested for inhibition of beta-galactosidase from aspergillus niger; NI means no inhibition.
T1 sequence (P29853 whole entry): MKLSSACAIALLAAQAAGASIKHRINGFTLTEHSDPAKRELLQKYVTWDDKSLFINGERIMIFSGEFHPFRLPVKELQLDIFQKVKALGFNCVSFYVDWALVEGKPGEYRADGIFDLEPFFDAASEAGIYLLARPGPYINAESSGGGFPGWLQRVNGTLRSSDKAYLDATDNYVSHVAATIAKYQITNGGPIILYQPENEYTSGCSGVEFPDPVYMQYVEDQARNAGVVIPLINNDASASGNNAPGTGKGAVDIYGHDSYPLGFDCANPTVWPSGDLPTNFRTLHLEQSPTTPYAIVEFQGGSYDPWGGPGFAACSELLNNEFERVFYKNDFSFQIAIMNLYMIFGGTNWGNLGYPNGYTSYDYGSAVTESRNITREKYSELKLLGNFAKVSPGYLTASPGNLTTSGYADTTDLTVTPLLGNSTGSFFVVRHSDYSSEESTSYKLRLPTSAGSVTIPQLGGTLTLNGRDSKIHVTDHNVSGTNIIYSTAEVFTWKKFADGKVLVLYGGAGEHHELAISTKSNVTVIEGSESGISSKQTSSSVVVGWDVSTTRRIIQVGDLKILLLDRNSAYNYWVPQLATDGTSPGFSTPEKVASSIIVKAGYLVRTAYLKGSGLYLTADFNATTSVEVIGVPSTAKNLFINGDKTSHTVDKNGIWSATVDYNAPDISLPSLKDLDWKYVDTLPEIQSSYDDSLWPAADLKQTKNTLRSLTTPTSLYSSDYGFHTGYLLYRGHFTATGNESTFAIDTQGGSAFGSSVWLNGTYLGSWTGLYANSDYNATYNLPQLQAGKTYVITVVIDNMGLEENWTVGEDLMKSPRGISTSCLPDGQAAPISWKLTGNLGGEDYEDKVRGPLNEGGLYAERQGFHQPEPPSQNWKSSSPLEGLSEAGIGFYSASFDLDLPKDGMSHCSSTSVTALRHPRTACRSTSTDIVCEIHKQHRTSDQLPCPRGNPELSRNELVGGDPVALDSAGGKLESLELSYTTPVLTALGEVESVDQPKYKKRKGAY

[4] = tested on: Canavalia ensiformis; assay: Compound was tested for % inhibition of alpha-mannosidase from jack beans.; conditions: concentration not given here
[5] = tested on: Canavalia ensiformis; assay: Compound was tested for % inhibition of beta-N-acetylglucosaminidase from jack beans.; conditions: concentration not given here
[6] = tested on: Alpha-glucosidase (Saccharomyces cerevisiae); assay: Compound was tested for % inhibition of alpha-glucosidase from yeast.; conditions: concentration not given here
[7] = tested on: beta-glucosidase (Prunus dulcis); assay: Compound was tested for % inhibition of beta-glucosidase from sweet almonds.; conditions: concentration not given here
[8] = tested on: alpha-galactosidase (Coffea arabica); assay: Compound was tested for inhibition of alpha-galactosidase from green coffee beans; NI means no inhibition.
[9] = molecular target: T1, Beta-galactosidase; assay: Compound was tested for inhibition of beta-galactosidase from aspergillus niger.
[10] = Compound was tested for inhibition of alpha-mannosidase from jack beans.; parameters: species or system Canavalia ensiformis

Structure (SMILES)	Ki [1]	Ki [2] [µM]	Ki [3]	inhibition [4] [%]	inhibition [5] [%]	inhibition [6] [%]	inhibition [7] [%]	Ki [8]	Ki [9] [µM]	Ki [10] [µM]
O[C@H]1[C@H](O)[C@H](O)CNC[C@H]1O	No inhibition	4.6	No inhibition							
O[C@H]1[C@H](O)[C@H](O)CN(Cc2ccccc2)C[C@H]1O			No inhibition	11	6	6	14	No inhibition		
O[C@H]1[C@H](O)[C@@H](O)CNC[C@@H]1O		22.7							6.5	25.7
